“Also recorded” adds a separate entry of the source.

The text below walks through data of US12116614B2, “Methods for determining antibiotic sensitivity” (priority 2020, dated 2024).

Test [1] relates to A. baumanii. The test can be described thus: Relative percent killing of planktonic versus anti-DNABII NRel by top-line antibiotics. The class given is cell-based. Particulars: 16-hour biofilms, HuTipMab 30 minutes, antibiotic 2 hours. On the procedure: FIGS. 11A and 11B show relative percent killing of planktonic versus anti-DNABII NRel of five diverse species of human pathogens by each of the three current top-line antibiotics used to treat individuals with disease due to the indicated pathogen. Using the methods described herein, planktonic bacteria were recovered mid-log phase. NRel were induced by incubation of 16-hour biofilms with HuTipMab for 30 minutes. Planktonic and NRel populations were then incubated with each of three top-line antibiotics for 2 hours to determine relative percent killing. […] See boxed data in FIG. 11B for NTHI and S. aureus.

Test [2] has as its system planktonic P. aeruginosa isolate JG1. Briefly: MIC for planktonic clinical isolate. The class given is cell-based. Particulars: planktonic P. aeruginosa isolate JG1 from CF sputum. On the procedure: (§1) Here both the planktonic and anti-DNABII NRel of JG1 were incubated with ¼ of the indicated MIC of tobramycin.
MIC refers to minimal inhibitory concentration of an active agent such as a drug that is the lowest concentration that will inhibit the visible growth of a microorganism after overnight incubation and minimal bactericidal concentrations as the lowest concentration of an antimicrobial that will prevent the growth of an organism after subculture on antibiotic free media. Methods to determine these values are well known in the art and describe in Andrews, J. (2002) Antimicrob Chemother June; 49(6):1049.

For test [3], the system named is P. aeruginosa isolate JG1. The test can be described thus: Killing of planktonic and anti-DNABII NRel of clinical isolate at 1/4 MIC. The class given is cell-based. On the procedure:
as §1

The subject of test [4] is NTHI (biofilm-resident, planktonic, anti-rsPilA NRel, anti-IHF NRel). The test can be described thus: Antibiotic sensitivity of biofilm-resident, planktonic or NRel NTHI (2 h antibiotic exposure, CFU plating). The class given is cell-based, Nontypeable Haemophilus influenzae. The procedure:
Biofilms were established for 16 hr at 37° C. as described above. For biofilm-resident NTHI: biofilms were washed twice with DPBS and incubated in sBHI supplemented with the indicated antibiotics for at 37° C. 2 h. For planktonic NTHI: NTHI were incubated in sBHI for 3 hr as described above to reach log phase of growth, then diluted to the approximate concentration of either the anti-IHF (2×10^8 CFU/ml) or anti-rsPilA NRels (3×10^8 CFU/ml) to permit comparison between anti-IHF or anti-rsPilA NRels, (see FIG. 1). Planktonic NTHI were incubated with the indicated antibiotics at 37° C. for 2 hr. For NRel NTHI: anti-IHF or anti-rsPilA NRel, generated and collected as described above were incubated at 37° C. for 2 hr with the indicated antibiotics. CFU NTHI were determined by serial dilution and plating. Amoxicillin (Sigma-Aldrich, St. Louis, MO) and clavulanate (U.S. Pharmacopeia, Rockville, MD) were used at a ratio of 2:1. Trimethoprim (Sigma-Aldrich) and sulfamethoxazole (Santa Cruz Biotech, Dallas, TX) were used at a ratio of 1:5. […] All experiments were performed at least three times on separate days with two technical replicates for each treatment and control group.
To avoid excessive manipulation or dilution of NRel NTHI, and to permit direct comparison of equal numbers of planktonic and NRel, the planktonic cell density was adjusted to the same CFU per ml as the NRel population in each experiment as follows: NTHI were incubated statically to mid log phase growth then diluted to either 3×10^8 CFU/ml for comparison with anti-rsPilA NRel collected at 6 h, or to 2×10^8 CFU/ml for comparison with anti-IHF NRel collected at 15 min (see FIG. 1). Applicant then determined the concentrations of amoxicillin (Sigma-Aldrich, St. Louis, MO) and clavulanate (U.S. Pharmacopeia, Rockville, MD), or of trimethoprim (Sigma-Aldrich) and sulfamethoxazole (Santa Cruz Biotech, Dallas, TX) that killed approximately 25% of planktonic NTHI at each density. The same antibiotic concentrations were used for the anti-IHF or anti-rsPilA NRel, the density-matched (same CFU/ml) planktonic NTHI, and the adherent biofilm for each relevant experiment. […] Applicant then assessed killing of anti-IHF or anti-rsPilA NRel by concentrations of amoxicillin plus clavulanic acid (“augmentin”, AMC) or trimethoprim plus sulfamethoxazole (TMP-SMX) that killed 25% of the planktonic NTHI at the same density.
Anti-rsPilA or anti-IHF NRel were collected and sonicated as described above. After sonication for 2 min in a water bath sonicator to break up any NTHI aggregates, NRel or planktonic NTHI were incubated with the indicated antibiotics at 37° C. for 2 h, then serially diluted and plated on chocolate agar to quantify viable NTHI. To assay biofilm-resident NTHI, biofilms were established for 16 h at 37° C. as described above, washed twice with DPBS and incubated in sBHI supplemented with the indicated antibiotics at 37° C. After 2 h, biofilm-resident NTHI were collected by forceful pipetting, sonicated for 2 min and enumerated as described above. All experiments were performed at least three times on separate days with two or three technical replicates for each treatment and control group.

The test system of test [5] is NRel versus Non-Associated NTHI. An excerpt:
Applicant tested for this phenotype for either Amox/Clav or Trimethoprim/Sulfamethoxazole to determine when this sensitivity first appears and how long this NRel phenotype lasts (i.e. what is the window of opportunity in which to treat a patient with a biofilm disease?). Here, NRel are compared not to planktonic bacteria (due to their artificiality) but rather to “Non-Associated” bacteria which are those found in the supernatant above the biofilm but not associated with biofilm residence as this population represents those bacteria that naturally come off the biofilm or were never a part of the biofilm which is a normal aspect of the preferred bacterial lifestyle in nature. […] Box Legend: NRelAC—relative killing by Amox/Clav; NRel TS—relative killing by Trimethoprim/Sulfamethoxazole; open symbols are the same but for the non-associated populations of bacteria as now described in this legend. Data was generated with a murine anti-tip chimer antibody.
Box Legend: NRelAC—relative killing by Amox/Clav; NRel TS—relative killing by Trimethoprim/Sulfamethoxazole; open symbols are the same but for the non-associated populations of bacteria as now described in this legend. Data was generated with a murine anti-tip chimer antibody.

Test [6] has as its system A. baumanii. The test can be described thus: Time and dose-dependent release into NRel state from established biofilms by HuTipMab. It is filed as cell-based. Particulars: A. baumanii biofilm; versus HuIgG negative control. The procedure: (§2) FIGS. 8A to 8F show the time and dose-dependence of release of six diverse species of human pathogens into the NRel state by anti-DNABII which occurs when established biofilms are incubated with a humanized monoclonal antibody raised against a chimeric peptide identified as IhfA5-mIhfB4 tip chimer (The humanized antibody utilized in this example (identified in the Figure and herein as “HuTipMab”) comprises heavy chain 1 (HCl) and light chain 2 (LC2) as disclosed herein) but not when similarly incubated with the negative control (“HulgG” a commercially available naïve human serum of the isotype IgG).

For a further test, the system named is B. cenocepacia. The description is as above. It is filed as cell-based. Particulars: B. cenocepacia biofilm; versus HuIgG negative control. The procedure:
as §2

Another test has as its system P. aeruginosa. Described as above. It is filed as cell-based. Particulars: P. aeruginosa biofilm; versus HuIgG negative control. On the procedure:
as §2

The test system of the next test is S. aureus. The test is described as above. The class given is cell-based. Particulars: S. aureus biofilm; versus HuIgG negative control. On the procedure:
as §2

A further test has as its system S. pneumoniae. The test is described as above. Particulars: S. pneumoniae biofilm; versus HuIgG negative control. The class given is cell-based. On the procedure: as §2
Test [7] has as its system nontypeable H. influenzae (NTHI). The description is as above. The class given is cell-based. Particulars: NTHI biofilm; versus HuIgG negative control. On the procedure: as §2
Where [8] appears, read: after exposure to anti-DNABII antibody.

With `NC[C@H]1O[C@H](O[C@H]2[C@H](O)[C@@H](O[C@H]3O[C@H](CO)[C@@H](O)[C@H](N)[C@H]3O)[C@H](N)C[C@@H]2N)[C@H](N)C[C@@H]1O` [tobramycin], the “relative killing of anti-DNABII NRel versus planktonic” value with A. baumanii [1] was “not killed significantly greater”. For the same molecule, the MIC in test [2] was found to be 4086 μg tobramycin/ml. In addition, in test [3] (1/4 MIC tobramycin, n=3, p≤0.01), the “killing of anti-DNABII NRel of JG1 compared to planktonic” value was “significantly more sensitive to killing”. The “planktonic JG1 killed” value in test [3] (1/4 of the MIC of tobramycin) is given as roughly 25%.
Turning to amoxicillin and clavulanic acid [A/C], the “sensitivity of biofilm-resident NTHI to killing” value in test [4] (16 h biofilm, 2 h antibiotic) is listed as “minimal sensitivity”. Further, in test [4] (NRel after 15 min anti-IHF, 2 h antibiotic), the “sensitivity to killing of anti-IHF NRel compared to biofilm-resident NTHI” value is “significantly more sensitive”. Besides, the “sensitivity to killing of anti-IHF NRel compared to planktonic NTHI” value in test [4] (NRel after 15 min anti-IHF, 2 h antibiotic at concentration killing ~20-25% of planktonic NTHI) is on record as “significantly more sensitive”. For the same molecule, in test [4] (NRel after 6 h anti-rsPilA, 2 h antibiotic), the “sensitivity to killing of anti-rsPilA NRel compared to biofilm-resident NTHI” value is “significantly more sensitive”. Also, in test [4] (NRel after 6 h anti-rsPilA, 2 h antibiotic at concentration killing ~20-25% of planktonic NTHI), the “sensitivity to killing of anti-rsPilA NRel compared to planktonic NTHI” value is “only equally as sensitive; also recorded: only as equally as sensitive”. In test [4] (NRel after 6 h anti-rsPilA, 2 h antibiotic at concentration killing ~20-25% of planktonic NTHI, listed as AMC), the “sensitivity to killing of anti-rsPilA NRel compared to planktonic NTHI” value is “only equally as sensitive”. Further, in [4] (NRel collected after 2 h, TMP-SMX 0.09 and 0.45 μg per ml, AMC 0.3 and 0.15 μg per ml, listed as AMC), the “sensitivity to killing of time-matched anti-rsPilA NRel compared to planktonic NTHI” value is listed as “only equally as sensitive; also recorded: equally susceptible”. In test [4] (NRel collected after 2 h, TMP-SMX 0.94 and 4.7 μg/ml, AMC 2.5 and 1.25 μg/ml, listed as AMC), the “sensitivity to killing of time-matched anti-IHF NRel compared to planktonic NTHI” value is “significantly more sensitive; also recorded: significantly more susceptible”. Also, the “sensitivity of anti-DNABII NRel to killing compared to Non-Associated bacteria” value in [5] (NRel induced with murine anti-tip chimer antibody) is “significantly greater sensitivity”. In test [5] (setting [8]), the “time at which sensitivity of anti-DNABII NRel reaches a maximum” value is no more than 2 h, the “time at which significantly greater sensitivity of anti-DNABII NRel occurs” value was no more than 5 min and the “time until which greater sensitivity of anti-DNABII NRel lasts” value is roughly 3 h. Besides, the “time by which greater sensitivity of anti-DNABII NRel wanes” value in test [5] (post exposure to anti-DNABII antibody) is no more than 6 h.

B1: HuTipMab (antibody)
heavy: EVQLVESGGGLVQPGGSLRLSCAASGFTFRTYAMSWVRQAPGKGLEWVATIGSDRRHTYYPDSVKGRFTISRDNSKNTLYLQMNSLRAEDTAVYYCVGPYDGYYGEFDYWGQGTLVTVSSASTKGPSVFPLAPSSKSTSGGTAALGCLVKDYFPEPVTVSWNSGALTSGVHTFPAVLQSSGLYSLSSVVTVPSSSLGTQTYICNVNHKPSNTKVDKKVEPKSCDKTHTCPPCPAPELLGGPSVFLFPPKPKDTLMISRTPEVTCVVVDVSHEDPEVKFNWYVDGVEVHNAKTKPREEQYNSTYRVVSVLTVLHQDWLNGKEYCKVSNKALPAPIEKTISKAKGQPREPQVYTLPPSREEMTKNQVSLTCLVKGFYPSDIAVEWESNGQPENNYKTTPPVLDSDGSFFLYSKLTVDKSRWQQGNVFSCSVMHEALHNHYTQKSLSLSPG
light: DVVMTQSPLSLPVTLGQPASISCRSSQSLLDSDGKTFLNWLQQRPGQSPRRLIYLVSKRDSGVPDRFSGSGSGTDFTLKISRVEAEDVGVYYCWQGTHFPYTFGQGTKLEIKRTVAAPSVFIFPPSDEQLKSGTASVVCLLNNFYPREAKVQWKVDNALQSGNSQESVTEQDSKDSTYSLSSTLTLSKADYEKHKVYACEVTHQGLSSPVTKSFNRGEC
On to B1, for which the “release into the NRel state over time” value with A. baumanii [6] is recorded as “jump in the number of NRel at 30 mins regardless of dose”; in the test on B. cenocepacia, “jump in the number of NRel at 30 mins regardless of dose”; in the test with P. aeruginosa it was “gradual, more linear increase over time”; with S. aureus, “jump in the number of NRel at 30 mins regardless of dose”; in the test on S. pneumoniae it was “gradual, more linear increase over time”; in test [7] it was “jump in the number of NRel at 30 mins regardless of dose”.
